Reference: patent publication US20210255193A1, “LYSINE REACTIVE PROBES AND USES THEREOF” (The Scripps Research Institute, priority 2017, published 2021)

Experiments:
Test in all cases: competitive isoTOP-ABPP
Format in all cases: binding
[1] = target: T1, STRN3 Striatin-3 (Homo sapiens, UniProt Q13033); conditions: for isoTOP-ABPP ratio (R) at liganded lysine Q13033_K755: sol, 231; for isoTOP-ABPP ratio, lysine Q13033_K755: 50 uM_231_sol_in vitro
T1 construct: isoTOP-ABPP experiments performed in cell lysates (in vitro); endogenous in cells; host or cells: soluble proteome of human cancer cell lines (MDA-MB-231, Ramos, Jurkat)
T1 sequence (Q13033 1-797): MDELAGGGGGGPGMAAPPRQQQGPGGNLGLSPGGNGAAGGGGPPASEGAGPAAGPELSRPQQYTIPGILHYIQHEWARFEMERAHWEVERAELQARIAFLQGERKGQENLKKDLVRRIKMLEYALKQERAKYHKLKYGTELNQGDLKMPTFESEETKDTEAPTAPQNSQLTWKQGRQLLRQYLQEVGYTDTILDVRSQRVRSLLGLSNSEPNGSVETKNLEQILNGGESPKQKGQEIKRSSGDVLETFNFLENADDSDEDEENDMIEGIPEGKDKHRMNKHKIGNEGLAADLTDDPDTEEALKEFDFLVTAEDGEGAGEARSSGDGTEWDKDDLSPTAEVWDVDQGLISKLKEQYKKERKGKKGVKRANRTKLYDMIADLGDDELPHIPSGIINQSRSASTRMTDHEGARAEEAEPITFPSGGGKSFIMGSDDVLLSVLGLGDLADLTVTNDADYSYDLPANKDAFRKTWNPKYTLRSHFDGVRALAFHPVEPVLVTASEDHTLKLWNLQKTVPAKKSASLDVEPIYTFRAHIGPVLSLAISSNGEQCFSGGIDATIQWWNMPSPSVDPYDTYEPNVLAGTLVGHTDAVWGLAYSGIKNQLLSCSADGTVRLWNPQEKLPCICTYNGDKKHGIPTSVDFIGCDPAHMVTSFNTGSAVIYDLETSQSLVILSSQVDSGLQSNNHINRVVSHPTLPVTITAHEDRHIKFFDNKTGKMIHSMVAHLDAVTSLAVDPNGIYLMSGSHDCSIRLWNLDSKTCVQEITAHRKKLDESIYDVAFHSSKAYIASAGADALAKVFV
Procedure, shortened: (§1)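 Readout: isotopic light/heavy MS1 peak-area ratio (R, DMSO heavy over compound light), median across peptides sharing a modified lysine. Lysate received fragment (activated esters 50 μM, guanidinylating agents 100 μM final) or DMSO, then 0.1 mM STP-alkyne probe for 1 h at ambient temperature.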

[2] = target: T2, GOLGB1 Golgin subfamily B member 1 (Homo sapiens, UniProt Q14789); conditions: for isoTOP-ABPP ratio (R) at liganded lysine Q14789_K103: sol, 231; for isoTOP-ABPP ratio, lysine Q14789_K103: 50 uM_231_sol_in vitro
T2 construct: isoTOP-ABPP experiments performed in cell lysates (in vitro); endogenous in cells; host or cells: soluble proteome of human cancer cell lines (MDA-MB-231, Ramos, Jurkat)
T2 sequence (Q14789 whole entry): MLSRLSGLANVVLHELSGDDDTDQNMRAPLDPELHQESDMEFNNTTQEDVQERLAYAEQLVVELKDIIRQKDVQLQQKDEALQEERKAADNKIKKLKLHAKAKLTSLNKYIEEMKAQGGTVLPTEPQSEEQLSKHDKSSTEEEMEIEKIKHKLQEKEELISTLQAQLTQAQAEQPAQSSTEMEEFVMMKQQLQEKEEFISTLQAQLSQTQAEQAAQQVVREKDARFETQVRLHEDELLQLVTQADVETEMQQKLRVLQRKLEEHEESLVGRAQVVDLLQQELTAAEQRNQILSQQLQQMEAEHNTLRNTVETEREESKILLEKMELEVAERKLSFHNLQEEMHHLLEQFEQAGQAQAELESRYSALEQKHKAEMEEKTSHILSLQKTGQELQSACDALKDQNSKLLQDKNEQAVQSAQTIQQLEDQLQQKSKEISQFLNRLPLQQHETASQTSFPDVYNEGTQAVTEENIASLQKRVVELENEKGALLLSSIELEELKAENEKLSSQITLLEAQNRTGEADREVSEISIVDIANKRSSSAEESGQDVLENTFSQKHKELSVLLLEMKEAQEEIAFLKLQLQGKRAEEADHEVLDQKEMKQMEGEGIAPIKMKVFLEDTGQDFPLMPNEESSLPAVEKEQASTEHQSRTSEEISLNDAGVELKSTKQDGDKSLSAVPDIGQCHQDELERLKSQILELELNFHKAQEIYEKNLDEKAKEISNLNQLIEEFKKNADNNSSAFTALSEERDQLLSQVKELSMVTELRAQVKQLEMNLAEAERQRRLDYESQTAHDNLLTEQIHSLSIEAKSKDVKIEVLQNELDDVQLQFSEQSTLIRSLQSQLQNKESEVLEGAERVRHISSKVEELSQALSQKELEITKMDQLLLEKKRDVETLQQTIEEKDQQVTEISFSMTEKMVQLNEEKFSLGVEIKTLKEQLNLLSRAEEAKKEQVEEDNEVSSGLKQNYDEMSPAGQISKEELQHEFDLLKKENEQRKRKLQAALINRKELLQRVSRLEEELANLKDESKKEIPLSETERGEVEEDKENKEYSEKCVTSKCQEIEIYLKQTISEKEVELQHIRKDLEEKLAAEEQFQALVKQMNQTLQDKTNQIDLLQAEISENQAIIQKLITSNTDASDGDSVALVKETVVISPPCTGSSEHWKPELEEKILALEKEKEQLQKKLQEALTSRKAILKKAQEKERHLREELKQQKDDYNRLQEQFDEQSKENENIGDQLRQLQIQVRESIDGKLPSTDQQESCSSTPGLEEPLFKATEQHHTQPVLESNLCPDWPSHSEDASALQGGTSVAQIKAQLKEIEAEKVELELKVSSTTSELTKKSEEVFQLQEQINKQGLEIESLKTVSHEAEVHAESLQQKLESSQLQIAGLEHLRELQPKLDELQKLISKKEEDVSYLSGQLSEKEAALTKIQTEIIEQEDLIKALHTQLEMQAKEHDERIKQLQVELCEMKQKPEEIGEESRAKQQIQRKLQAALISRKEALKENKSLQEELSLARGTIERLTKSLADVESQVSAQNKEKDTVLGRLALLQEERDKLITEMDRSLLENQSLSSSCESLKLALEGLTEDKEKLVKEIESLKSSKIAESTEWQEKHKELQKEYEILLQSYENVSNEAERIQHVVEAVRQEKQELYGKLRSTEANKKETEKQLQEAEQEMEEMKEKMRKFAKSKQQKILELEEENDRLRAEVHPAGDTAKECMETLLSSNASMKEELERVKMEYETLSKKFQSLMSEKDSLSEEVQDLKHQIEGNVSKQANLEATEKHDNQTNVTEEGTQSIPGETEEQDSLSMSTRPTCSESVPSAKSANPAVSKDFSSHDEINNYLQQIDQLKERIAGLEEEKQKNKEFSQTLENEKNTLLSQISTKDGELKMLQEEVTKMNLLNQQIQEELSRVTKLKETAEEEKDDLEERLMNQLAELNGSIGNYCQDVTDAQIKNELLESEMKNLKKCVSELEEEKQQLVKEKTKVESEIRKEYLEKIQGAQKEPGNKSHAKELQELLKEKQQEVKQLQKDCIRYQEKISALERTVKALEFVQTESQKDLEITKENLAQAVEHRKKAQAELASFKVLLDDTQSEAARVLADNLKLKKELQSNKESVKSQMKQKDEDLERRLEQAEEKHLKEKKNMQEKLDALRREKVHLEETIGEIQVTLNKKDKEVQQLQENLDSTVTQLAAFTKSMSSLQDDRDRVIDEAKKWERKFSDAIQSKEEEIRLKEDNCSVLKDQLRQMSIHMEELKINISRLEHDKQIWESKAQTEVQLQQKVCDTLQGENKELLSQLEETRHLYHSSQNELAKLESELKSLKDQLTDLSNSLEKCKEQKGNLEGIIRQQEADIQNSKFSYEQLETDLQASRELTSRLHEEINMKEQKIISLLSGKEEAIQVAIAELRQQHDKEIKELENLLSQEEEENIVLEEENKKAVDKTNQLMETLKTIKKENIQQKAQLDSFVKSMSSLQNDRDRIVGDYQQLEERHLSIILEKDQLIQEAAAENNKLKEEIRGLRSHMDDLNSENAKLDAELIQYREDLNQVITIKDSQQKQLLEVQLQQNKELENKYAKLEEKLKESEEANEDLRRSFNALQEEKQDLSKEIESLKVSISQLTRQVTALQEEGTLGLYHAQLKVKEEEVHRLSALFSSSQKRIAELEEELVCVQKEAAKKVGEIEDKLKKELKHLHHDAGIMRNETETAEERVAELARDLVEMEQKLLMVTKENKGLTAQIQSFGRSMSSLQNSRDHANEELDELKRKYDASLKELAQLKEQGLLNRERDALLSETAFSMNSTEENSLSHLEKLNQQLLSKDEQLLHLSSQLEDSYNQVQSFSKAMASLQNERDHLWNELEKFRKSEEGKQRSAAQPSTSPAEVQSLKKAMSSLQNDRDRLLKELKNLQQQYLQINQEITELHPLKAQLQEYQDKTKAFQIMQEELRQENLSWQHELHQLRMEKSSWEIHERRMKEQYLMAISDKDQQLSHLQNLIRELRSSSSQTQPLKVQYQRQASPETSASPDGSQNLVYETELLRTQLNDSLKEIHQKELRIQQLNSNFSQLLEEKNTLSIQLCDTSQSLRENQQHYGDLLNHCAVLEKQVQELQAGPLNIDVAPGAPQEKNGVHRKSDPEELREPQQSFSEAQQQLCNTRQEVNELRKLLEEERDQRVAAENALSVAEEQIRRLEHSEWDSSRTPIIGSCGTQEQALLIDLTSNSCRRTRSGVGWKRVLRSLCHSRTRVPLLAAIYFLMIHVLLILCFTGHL
Procedure, shortened: as §1

[3] = target: T3, RPL10 60S ribosomal protein L10 (Homo sapiens, UniProt P27635); conditions: for isoTOP-ABPP ratio (R) at liganded lysine P27635_K121: sol, 231; for isoTOP-ABPP ratio, lysine P27635_K121: 50 uM_231_sol_in vitro
T3 construct: isoTOP-ABPP experiments performed in cell lysates (in vitro); endogenous in cells; host or cells: soluble proteome of human cancer cell lines (MDA-MB-231; Ramos and Jurkat also prepared)
Procedure, shortened: as §1

[4] = target: T4, GBAS Protein NipSnap homolog 2 (Homo sapiens, UniProt O75323); conditions: for isoTOP-ABPP ratio (R) at liganded lysine O75323_K75: sol, 231; for isoTOP-ABPP ratio, lysine O75323_K75: 50 uM_231_sol_in vitro
T4 construct: isoTOP-ABPP experiments performed in cell lysates (in vitro); endogenous in cells; host or cells: MDA-MB-231 soluble lysate
T4 sequence (O75323 24-286): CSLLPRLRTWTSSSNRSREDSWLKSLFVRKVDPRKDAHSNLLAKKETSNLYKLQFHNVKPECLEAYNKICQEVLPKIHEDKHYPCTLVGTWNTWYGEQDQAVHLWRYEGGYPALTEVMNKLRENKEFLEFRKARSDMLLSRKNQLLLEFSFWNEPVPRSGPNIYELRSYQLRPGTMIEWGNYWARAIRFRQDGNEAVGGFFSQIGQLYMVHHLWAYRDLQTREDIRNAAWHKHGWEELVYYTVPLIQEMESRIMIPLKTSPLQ
Procedure, shortened: as §1

**Q.** Which “isoTOP-ABPP ratio (R) at liganded lysine Q13033_K755” value ([1]; 50 uM, in vitro) does the source give for `O=C(CCc1coc2cc(F)ccc2c1=O)Oc1ccc([N+](=O)[O-])cc1[N+](=O)[O-]` [fragment 36, 2,4-Dinitrophenyl 3-(7-fluoro-4-oxo-4H-chromen-3-yl)propanoate] here?
**A.** The value was 1.3.

**Q.** What about the “isoTOP-ABPP ratio (R) at liganded lysine Q14789_K103” value ([2]; 50 uM, in vitro) of the same compound?
**A.** Its value is 0.9.

**Q.** And the “isoTOP-ABPP ratio (R) at liganded lysine P27635_K121” value ([3]; 50 uM, in vitro)?
**A.** The value was 0.5.

**Q.** What about the “isoTOP-ABPP ratio (R) at liganded lysine O75323_K75” value ([4]; 50 uM, in vitro) of the same compound?
**A.** The value was 20.0.

**Q.** What does the source list for `O=C(Oc1ccc([N+](=O)[O-])cc1[N+](=O)[O-])C(c1ccccc1)(c1ccccc1)c1ccccc1` [fragment 42, 2,4-Dinitrophenyl 2,2,2-triphenylacetate]?
**A.** isoTOP-ABPP ratio (R) at liganded lysine Q13033_K755 ([1]; 50 uM, in vitro): 0.9; isoTOP-ABPP ratio (R) at liganded lysine Q14789_K103 ([2]; 50 uM, in vitro): 0.9; isoTOP-ABPP ratio (R) at liganded lysine O75323_K75 ([4]; 50 uM, in vitro): 0.9

**Q.** Which “isoTOP-ABPP reactivity ratio at lysine Q13033_K755” value ([1]; 50 uM, 231 sol, in vitro) does the source give for `O=C(CCc1coc2cc(F)ccc2c1=O)Oc1c(F)c(F)c(F)c(F)c1F` [fragment 26, Pentafluorophenyl 3-(7-fluoro-4-oxo-4H-chromen-3-yl)propanoate] here?
**A.** The value was 1.0.

**Q.** What about the “isoTOP-ABPP reactivity ratio at lysine Q14789_K103” value ([2]; 50 uM, 231 sol, in vitro) of the same compound?
**A.** The value was 1.1.

**Q.** And the “isoTOP-ABPP reactivity ratio at lysine P27635_K121” value ([3]; 50 uM, 231 sol, in vitro)?
**A.** The value was 0.9.

**Q.** What about the “isoTOP-ABPP reactivity ratio at lysine O75323_K75” value ([4]; 50 uM, 231 sol, in vitro) of the same compound?
**A.** The value was 4.2.

**Q.** Which “isoTOP-ABPP ratio (R) at liganded lysine Q13033_K755” value ([1]; 50 uM, in vitro) does the source give for `O=C(Oc1ccc([N+](=O)[O-])cc1[N+](=O)[O-])c1ccccc1Nc1cccc(C(F)(F)F)c1` [fragment 40, 2,4-Dinitrophenyl 2-((3-(trifluoromethyl)phenyl)amino)benzoate] here?
**A.** Its value is 1.2.

**Q.** What about the “isoTOP-ABPP ratio (R) at liganded lysine Q14789_K103” value ([2]; 50 uM, in vitro) of the same compound?
**A.** The value was 0.9.

**Q.** And the “isoTOP-ABPP ratio (R) at liganded lysine O75323_K75” value ([4]; 50 uM, in vitro)?
**A.** The value was 1.0.

**Q.** `O=C(Oc1ccc([N+](=O)[O-])cc1[N+](=O)[O-])C1CCN(C(=O)OCc2ccccc2)CC1` [fragment 34, 1-Benzyl 4-(2,4-dinitrophenyl) piperidine-1,4-dicarboxylate] was tested. Which “isoTOP-ABPP ratio (R) at liganded lysine Q13033_K755” value ([1]; 50 uM, in vitro) did it give?
**A.** Its value is 3.7.

**Q.** And the “isoTOP-ABPP ratio (R) at liganded lysine Q14789_K103” value ([2]; 50 uM, in vitro)?
**A.** The value was 0.9.

**Q.** And the “isoTOP-ABPP ratio (R) at liganded lysine P27635_K121” value ([3]; 50 uM, in vitro)?
**A.** Its value is 1.3.

**Q.** How did the “R value (DMSO/fragment) for probe 1 labeling” value (shortened to “R value (DMSO/fragment)”) ([1]; Q13033_K755, 50 uM, 231 sol, in vitro) turn out when `Cn1cc(CC(=O)Oc2c(F)c(F)c(F)c(F)c2F)c2ccccc21` [fragment 22, Pentafluorophenyl 2-(1-methyl-1H-indol-3-yl)acetate] was run?
**A.** The value was 1.0.

**Q.** And the “R value (DMSO/fragment)” value ([2]; Q14789_K103, 50 uM, 231 sol, in vitro)?
**A.** The value was 1.0.

**Q.** And the “R value (DMSO/fragment)” value ([3]; P27635_K121, 50 uM, 231 sol, in vitro)?
**A.** The value was 0.9.

**Q.** What about the “R value (DMSO/fragment)” value ([4]; O75323_K75, 50 uM, 231 sol, in vitro) of the same compound?
**A.** The value was 1.5.

**Q.** Which results are given for `O=C(Oc1c(F)c(F)c(C(F)(F)F)c(F)c1F)c1cc(C(F)(F)F)cc(C(F)(F)F)c1` [fragment 47, 2,3,5,6-Tetrafluoro-4-(trifluoromethyl)phenyl 3,5-bis(trifluoromethyl)benzoate]?
**A.** isoTOP-ABPP ratio, lysine Q13033_K755 [1]: 0.9; isoTOP-ABPP ratio, lysine Q14789_K103 [2]: 1.0; isoTOP-ABPP ratio, lysine P27635_K121 [3]: 1.1; isoTOP-ABPP ratio, lysine O75323_K75 [4]: 1.0

**Q.** Which results are given for `O=C(CC12CC3CC(CC(C3)C1)C2)Oc1ccc([N+](=O)[O-])cc1[N+](=O)[O-]` [fragment 38, 2,4-Dinitrophenyl 2-(adamantan-1-yl)acetate]?
**A.** isoTOP-ABPP ratio (R) at liganded lysine Q13033_K755 ([1]; 50 uM, in vitro): 0.9; isoTOP-ABPP ratio (R) at liganded lysine Q14789_K103 ([2]; 50 uM, in vitro): 0.9; isoTOP-ABPP ratio (R) at liganded lysine P27635_K121 ([3]; 50 uM, in vitro): 20.0; isoTOP-ABPP ratio (R) at liganded lysine O75323_K75 ([4]; 50 uM, in vitro): 1.3

**Q.** What does the source list for `O=C(ON1C(=O)CCC1=O)c1cc(C(F)(F)F)cc(C(F)(F)F)c1` [fragment 46, 3,5-Bis(trifluoromethyl)benzoic acid NHS ester]?
**A.** isoTOP-ABPP ratio, lysine Q13033_K755 [1]: 11.4; isoTOP-ABPP ratio, lysine Q14789_K103 [2]: 1.2; isoTOP-ABPP ratio, lysine P27635_K121 [3]: 0.8; isoTOP-ABPP ratio, lysine O75323_K75 [4]: 0.9

**Q.** Which results are given for `NC(=O)c1cc(C(F)(F)F)cc(C(F)(F)F)c1` [fragment 51, reference compound]?
**A.** isoTOP-ABPP ratio, lysine Q13033_K755 [1]: 0.9; isoTOP-ABPP ratio, lysine Q14789_K103 [2]: 0.9; isoTOP-ABPP ratio, lysine O75323_K75 [4]: 0.9
